Reference: the NIST ThermoML archive (doi:10.1021/je100028s)
± gives the expanded uncertainty stated by the source.

Settings: Liquid; for mass density: 293.1 K, 101.33 kPa, Pycnometric method; for vapor or sublimation pressure: Closed cell (Static) method

Row | SMILES | mass density | vapor or sublimation pressure (414 K) | vapor or sublimation pressure (423.4 K) | vapor or sublimation pressure (433.7 K)
1 | C1CCCCC1 [cyclohexane] | 778.2 ± 0.7 kg/m3 | 457.67 ± 21 kPa | 555.25 ± 21 kPa | 677.81 ± 21 kPa
2 | OC1CCCCC1 [cyclohexanol] | 941.4 ± 0.9 kg/m3 |  |  | 
3 | O=C1CCCCC1 [cyclohexanone] | 947.6 ± 0.9 kg/m3 |  |  | 
